# Test results as given in US20070099852A1, “CUCURBITACIN COMPOUNDS” (SOUTH DAKOTA STATE UNIVERSITY, priority 2005, published 2007).
# Marks after values point to notes of the source that are not given here.
# Legend:
# HSC-T6 cells [1] = assay: Serum-driven HSC-T6 proliferation, Experiment 1 (4 h challenge); assay type: cell-based, rat; conditions: for Experiment 1 anti-proliferation activity at 100 μM: HSC-T6, measured at 100 μM
# Method: The proliferation effect of serum on HSC-T6 cells was optimized and cucurbitacin antiproliferative activity was measured. Serum contains a large number of growth factors, hormones and other nutrients, which help cells to grow and multiply. Several trials were conducted. In experiment 1, cells were challenged with cucurbitacin analogs for 4 h and then cells were grown in drug-free media for two additional days.
# We established several experimental conditions such as 4 hours of incubation time with cucurbitacin, and 2 day cell incubation with fresh media after challenging with cucurbitacin (Exp. 1). Other experiments involved addition of cucurbitacin for 24 hours over starved cells (Exp. 2) vs. proliferating cells (Exp. 3), and one day incubation of cells with fresh media after challenge. […] Because of that, the challenge time was increased to 24 hours (Exp. 2 and 3).
# We modified this approach. Our assay included a second control (ZC) supplemented with no serum intended to measure cucurbitacin anti-proliferation effect relative to the number of cells generated during challenge instead of the total number of cells present in each well.
# [2] = Chromatographic hydrophobicity index (CHI) by RP-HPLC in buffered acetonitrile; assay type: physicochemical; conditions: isochratic and gradient elution of standard mixture
# [3] = Chromatographic hydrophobicity index (CHI) by RP-HPLC in buffered methanol; assay type: physicochemical; conditions: isochratic and gradient elution of standard mixture
# [4] = gradient elution of standard mixture and correlation with published data; published CHI values; cited from earlier work
# HepG2 cells [5] = conditions: for cytoprotection on HepG2 cells at 6.25% IC50: compound at 6.25% of its IC50, CCl4 4.5×10^−3 M; for cytoprotection on HepG2 cells at 12.5% IC50: compound at 12.5% of its IC50, CCl4 4.5×10^−3 M; for cytoprotection on HepG2 cells at 20% IC50: compound at 20% of its IC50, CCl4 4.5×10^−3 M; for cytoprotection on HepG2 cells at 50% IC50: compound at 50% of its IC50, CCl4 4.5×10^−3 M
# Text: The activity of two toxins was studied first on HepG2 cells—bromobenzene (BB) and CCl4. Cells were challenged with the toxins at different concentration levels.
# Experimental conditions were standardized on silybin. Cells were challenged with CCl4 (4.5×10^−3M) in presence of silybin at various concentrations.
# The ratio of IC50-to-EC50 (hereafter T/A) is also indicated in this table, which gives the margin between toxic and cytoprotective concentrations.
# [6] = DPPH Stable Free Radical Scavenging Assay; conditions: for DPPH activity at 50 μM: up to 30 minutes incubation
# Method: Cucurbitacin antioxidant activity was studied first by the DPPH® Stable Free Radical Scavenging Assay (Cotelle et al., Free radical Biology & Medicine 20(1): 35-43, 1996). Experimental conditions were optimized on the standard compound ascorbic acid. Data indicated 30% activity at 50 μM concentration, and 100% activity at 100 μM for ascorbic acid. While the original assay required 10 minutes incubation time for the reaction to occur, this time was increased up to 30 minutes in case cucurbitacin were reacting slower than other reagents.
# [7] = ABTS Radical Cation Decolorization Assay; conditions: 50 μM, 100 μM, and 1.8 mM; up to 2 hours
# Method: Cucurbitacin B activity was monitored at 50 μM, 100 μM, and 1.8 mM. The time interval was expanded up to 2 hours in case cucurbitacin B was reacting slowly.
# HSC-T6 cells [8] = assay: Cucurbitacin cytotoxicity on HSC-T6 (Experiment 3); assay type: cell-based, rat; conditions: 24 h
# Text: Cytotoxicity of all cucurbitacin analogs was additionally measured in experiment 3 (Table 8).
# HepG2 cells [9] = assay type: cell-based, human; conditions: HepG2, toxin at 4.5×10^−3 M
# Method: The activity of two toxins was studied first on HepG2 cells—bromobenzene (BB) and CCl4. Cells were challenged with the toxins at different concentration levels. Precipitate formation was observed when BB was diluted with media prior to addition to the cells; therefore, both the precipitate and the supernatant were added separately over cells to study their toxic effect.
# HSC-T6 cells [10] = assay: PDGF-driven proliferation of HSC-T6 cells; assay type: cell-based, rat; conditions: HSC-T6, incubation with PDGF for 2 days; not reproducible
# Text: The proliferation assay described by Zhang et al. (Zhang et al., Acta Pharmacol. Sin. 21: 253-256, 2000), was followed to determine the proliferative effect of PDGF on HSC-T6 cells, and yielded to total cell confluency prior to the addition of PDGF to the cells. Therefore, experimental conditions were changed stepwise to reduce cell confluency. When cell concentration was reduced from the initial 10,000 to 4,000 cells/well, and FBS concentration was reduced from 10 to 2%, cell confluency reached approximately 50% prior to the addition of PDGF. […] Further modifications to the initial assay were done such as increase of period of incubation or increase of PDGF concentration. Cells incubation with PDGF for 2 days indicated some degree of proliferation (0-22%), but it was not reproducible from one trial to the other.
# The experimental conditions presented by Yang et al. (Yang et al., World J. Gastroenterol. 9: 2050-2053, 2003) were also examined. It involved 1-day cell starvation in serum-free media followed by 3 h challenge with drug candidates and then 2 days incubation with PDGF in serum-free media. In our study, PDGF was added at various concentration levels to starved cells and incubation period with PDGF was increased to 2-to-3 days. However, we could not achieve a stable and significant level of cell proliferation in the presence of PDGF. […]
compound,measurement,setting,value
"CC(C)(O)/C=C/C(=O)[C@](C)(O)C1[C@H](O)C[C@@]2(C)C3CC=C4C(C=C(O[C@@H]5O[C@H](CO)[C@@H](O)[C@H](O)[C@H]5O)C(=O)C4(C)C)[C@]3(C)C(=O)C[C@]12C (some centres unmarked) [I-Gluc, cucurbitacin I glucoside]",Experiment 1 anti-proliferation activity at 100 μM,HSC-T6 cells [1],˜20% ^a
"c1ccc2[nH]cnc2c1 [Benzimidazole (20), benzimidazole]",CHIACN^b (standard compounds),[2],43.18 ± 0.12
same,CHIMeOH^b (standard compounds),[3],41.07 ± 0.04
same,CHIACN^c (standard compounds),[4],30.71
CC(C)OC1=CC2C(=CCC3C2(C)C(=O)CC2(C)C(C(C)(O)C(=O)C=CC(C)(C)O)C(O)CC32C)C(C)(C)C1=O (centres unmarked) [I-iPr],cytoprotection on HepG2 cells at 6.25% IC50,HepG2 cells [5],−17.10 ± 1.54
same,cytoprotection on HepG2 cells at 12.5% IC50,HepG2 cells [5],4.15 ± 0.48
same,cytoprotection on HepG2 cells at 20% IC50,HepG2 cells [5],18.69 ± 0.13
same,cytoprotection on HepG2 cells at 50% IC50,HepG2 cells [5],41.73 ± 2.06
"CCCOC1=CC2C(=CCC3C2(C)C(=O)CC2(C)C(C(C)(O)C(=O)C=CC(C)(C)O)C(O)CC32C)C(C)(C)C1=O (centres unmarked) [I-nPr, cucurbitacin I-nPr]",Experiment 1 anti-proliferation activity at 2-6 μM,"HSC-T6 cells [1]; HSC-T6, measured at 2-6 μM",˜18% ^b
"CC(=O)OC(C)(C)/C=C/C(=O)[C@](C)(O)[C@H]1[C@H](O)C[C@@]2(C)[C@@H]3CC=C4[C@H](C[C@H](O)C(=O)C4(C)C)[C@]3(C)C(=O)C[C@]12C [B, cucurbitacin B]",cytoprotection on HepG2 cells at 6.25% IC50,HepG2 cells [5],12.45 ± 1.11
same,cytoprotection on HepG2 cells at 12.5% IC50,HepG2 cells [5],25.25 ± 1.36
same,cytoprotection on HepG2 cells at 20% IC50,HepG2 cells [5],34.92 ± 2.76
same,cytoprotection on HepG2 cells at 50% IC50,HepG2 cells [5],60.01 ± 0.80
same,DPPH activity at 50 μM,[6],did not indicate any activity
same,ABTS activity,[7],No activity
"c1ccc2[nH]ccc2c1 [Indole (22), indole]",CHIACN^b (standard compounds),[2],67.73 + 0.13
same,CHIACN^c (standard compounds),[4],69.15
"COc1cc(C2Oc3cc([C@H]4Oc5cc(O)cc(O)c5C(=O)[C@@H]4O)ccc3OC2CO)ccc1O (some centres unmarked) [Silybin, reference compound]",cell growth with silybin alone,"HepG2 cells [5]; HepG2, silybin alone, 14 to 200 μM",up to 125%
same,toxicity of silybin alone on HepG2 cells,"HepG2 cells [5]; silybin alone, absence of CCl4, 14 to 200 μM (FIG. 4)",no toxicity
same,Experiment 1 anti-proliferation activity at 100 μM,HSC-T6 cells [1],˜20% ^a
same,"Experiment 3 IC50 (μM, T)",HSC-T6 cells [8],non
O=C1O[C@H]([C@@H](O)CO)C(O)=C1O [ascorbic acid],DPPH activity at 50 μM,[6],30%
same,DPPH activity at 100 μM,[6]; 100 μM,100%
"CC(=O)c1ccccc1 [Acetophenone (21), acetophenone]",CHIACN^b (standard compounds),[2],61.93 ± 0.05
same,CHIMeOH^b (standard compounds),[3],52.47 ± 0.05
same,CHIACN^c (standard compounds),[4],64.90
"COc1cc2c(c(OC)c1OC)-c1ccc(OC)c(=O)cc1[C@@H](NC(C)=O)CC2 [Colchicine (26), colchicine]",CHIMeOH^b (standard compounds),[3],57.56 + 0.04
same,CHIACN^c (standard compounds),[4],41.37
"CC(C)(O)/C=C/C(=O)[C@](C)(O)[C@H]1[C@H](O)C[C@@]2(C)[C@@H]3CC=C4[C@@H](C=C(O)C(=O)C4(C)C)[C@]3(C)C(=O)C[C@]12C [I, cucurbitacin I]",cytoprotection on HepG2 cells at 6.25% IC50,HepG2 cells [5],4.55 ± 0.64
same,cytoprotection on HepG2 cells at 12.5% IC50,HepG2 cells [5],17.50 ± 1.32
same,cytoprotection on HepG2 cells at 20% IC50,HepG2 cells [5],50.09 ± 1.02
same,cytoprotection on HepG2 cells at 50% IC50,HepG2 cells [5],54.75 ± 0.29
"Brc1ccccc1 [Bromobenzene (29), bromobenzene]",CHIMeOH^b (standard compounds),[3],69.43 + 0.07
"Nc1ccccc1 [Aniline (28), aniline]",CHIMeOH^b (standard compounds),[3],29.94 ± 0.05
"Cn1c(=O)c2nc(-c3ccccc3)[nH]c2n(C)c1=O [Ph-theophylline (27), phenyltheophylline]",CHIMeOH^b (standard compounds),[3],61.61 ± 0.04
same,CHIACN^c (standard compounds),[4],52.04
"CC(=O)OC(C)(C)/C=C/C(=O)[C@](C)(O)[C@H]1[C@H](O)C[C@@]2(C)[C@@H]3CC=C4[C@@H](C=C(O[C@@H]5O[C@H](CO)[C@@H](O)[C@H](O)[C@H]5O)C(=O)C4(C)C)[C@]3(C)C(=O)C[C@]12C [E-Gluc, cucurbitacin E glucoside]",cytoprotection on HepG2 cells at 6.25% IC50,HepG2 cells [5],−2.36 ± 1.08
same,cytoprotection on HepG2 cells at 12.5% IC50,HepG2 cells [5],17.96 ± 1.14
same,cytoprotection on HepG2 cells at 20% IC50,HepG2 cells [5],49.44 ± 0.29
same,cytoprotection on HepG2 cells at 50% IC50,HepG2 cells [5],33.92 ± 2.92
same,Experiment 1 anti-proliferation activity at 100 μM,HSC-T6 cells [1],˜46% ^a
cucurbitacin E,cytoprotection on HepG2 cells at 6.25% IC50,HepG2 cells [5],12.41 ± 0.78
same,cytoprotection on HepG2 cells at 12.5% IC50,HepG2 cells [5],21.72 ± 0.75
same,cytoprotection on HepG2 cells at 20% IC50,HepG2 cells [5],49.21 ± 1.73
same,cytoprotection on HepG2 cells at 50% IC50,HepG2 cells [5],80.55 ± 6.80
"CCC(=O)c1ccccc1 [Propiophenone (23), propiophenone]",CHIACN^b (standard compounds),[2],71.72 + 0.15
same,CHIMeOH^b (standard compounds),[3],60.41 + 0.04
same,CHIACN^c (standard compounds),[4],78.41
"Cn1c(=O)c2[nH]cnc2n(C)c1=O [Theophylline (19), theophylline]",CHIACN^b (standard compounds),[2],32.63 ± 0.07
same,CHIMeOH^b (standard compounds),[3],25.76 ± 0.05
same,CHIACN^c (standard compounds),[4],15.76
"CCCCC(=O)c1ccccc1 [Valerophenone (25), valerophenone]",CHIACN^b (standard compounds),[2],86.66 ± 0.08
same,CHIMeOH^b (standard compounds),[3],73.05 + 0.12
same,CHIACN^c (standard compounds),[4],97.67
ClC(Cl)(Cl)Cl [CCl4],cell viability,HepG2 cells [9],40%-50%
PDGF,degree of proliferation,HSC-T6 cells [10],0-22%
"CCCC(=O)c1ccccc1 [Butyrophenone (24), butyrophenone]",CHIACN^b (standard compounds),[2],79.32 ± 0.14
same,CHIMeOH^b (standard compounds),[3],66.79 ± 0.05
same,CHIACN^c (standard compounds),[4],88.49
